Data as given in US12667572B2, “Tricyclic compounds useful in the treatment of cancer, autoimmune and inflammatory disorders” (SCHRÖDINGER, INC., priority 2021, dated 2026).

The compounds below were run against T1, full-length MALT1 protein His-MALT1(1-824) (Homo sapiens, UniProt Q9UDY8) (assay: MALT1 protease assay, Assay 2 (1 nM MALT1, Ac-LRSR-AMC substrate)). Conditions: 1 nM MALT1, 50 μM Ac-LRSR-AMC, 2 h pre-incubation, 8 hr incubation at RT.
T1 construct: full-length MALT1 protein His-MALT1(1-824); His (N); made in house; host or cells: baculovirus-infected insect cells
T1 sequence (Q9UDY8 1-824): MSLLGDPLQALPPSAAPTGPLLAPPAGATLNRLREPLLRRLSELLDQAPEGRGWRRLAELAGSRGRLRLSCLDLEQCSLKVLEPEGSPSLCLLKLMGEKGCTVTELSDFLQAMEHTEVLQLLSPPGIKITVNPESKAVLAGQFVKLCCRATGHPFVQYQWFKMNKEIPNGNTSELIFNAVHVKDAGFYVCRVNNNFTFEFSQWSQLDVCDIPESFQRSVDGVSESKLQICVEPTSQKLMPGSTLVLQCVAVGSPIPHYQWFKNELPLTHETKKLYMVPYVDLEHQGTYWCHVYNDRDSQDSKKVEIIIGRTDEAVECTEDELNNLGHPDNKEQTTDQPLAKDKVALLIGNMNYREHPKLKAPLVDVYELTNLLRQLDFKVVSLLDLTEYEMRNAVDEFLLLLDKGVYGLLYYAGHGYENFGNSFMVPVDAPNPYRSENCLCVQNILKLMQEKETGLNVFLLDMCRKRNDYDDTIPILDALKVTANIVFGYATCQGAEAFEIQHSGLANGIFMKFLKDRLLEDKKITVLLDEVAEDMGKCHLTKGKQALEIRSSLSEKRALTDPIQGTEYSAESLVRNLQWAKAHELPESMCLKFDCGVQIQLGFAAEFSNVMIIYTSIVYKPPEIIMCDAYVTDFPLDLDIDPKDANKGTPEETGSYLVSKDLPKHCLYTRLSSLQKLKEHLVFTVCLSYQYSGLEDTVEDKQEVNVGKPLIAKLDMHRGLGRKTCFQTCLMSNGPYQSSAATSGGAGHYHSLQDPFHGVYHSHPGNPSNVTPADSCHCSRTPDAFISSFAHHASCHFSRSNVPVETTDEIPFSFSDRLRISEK
Type: biochemical
How it was run: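 Full-length His-MALT1(1-824) from baculovirus-infected insect cells, pre-incubated with compound 2 h at RT (0.1% DMSO). Then 50 μM Ac-LRSR-AMC added. Buffer was Tris pH 7.5 with 600 mM sodium citrate, DTT, EDTA and BSA. Fluorescence (ex 355/em 460 nm) was read after 8 h at RT and normalized to high/low controls. IC50 from non-linear regression.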

| IC50 | Compound |
| --- | --- |
| 100 to 1000 nM | O=C(Nc1cnc([C@@H](O)C(F)F)c(Cl)c1)[C@H]1CC2(CCC2)c2c1cnc1cc(F)nn21 (single isomer, unassigned) [Example 135, N-(5-chloro-6-(2,2-difluoro-1-hydroxyethyl)pyridin-3-yl)-2′-fluoro-6′,7′-dihydrospiro[cyclobutane-1,8′-cyclopenta[e]pyrazolo[1,5-a]pyrimidine]-6′-carboxamide] |
| 100 to 1000 nM | O=C(Nc1cnc([C@H](O)C(F)F)c(Cl)c1)[C@H]1CC2(CCC2)c2c1cnc1cc(F)nn21 (single isomer, unassigned) [Example 136, N-(5-chloro-6-(2,2-difluoro-1-hydroxyethyl)pyridin-3-yl)-2′-fluoro-6′,7′-dihydrospiro[cyclobutane-1,8′-cyclopenta[e]pyrazolo[1,5-a]pyrimidine]-6′-carboxamide] |
| 100 to 1000 nM | Cn1nnc(-c2ncc(NC(=O)C3CC(C)(C)c4c3cnc3cc(Cl)nn43)cc2Cl)n1 (single isomer, unassigned) [Example 143, 2-chloro-N-(5-chloro-6-(2-methyl-2H-tetrazol-5-yl)pyridin-3-yl)-8,8-dimethyl-7,8-dihydro-6H-cyclopenta[e]pyrazolo[1,5-a]pyrimidine-6-carboxamide] |
| 10 to 100 nM | Cn1nnnc1-c1ncc(NC(=O)[C@@H]2CC(C)(C)c3c2cnc2cc(Cl)nn32)cc1Cl (single isomer, unassigned) [Example 144, 2-chloro-N-(5-chloro-6-(1-methyl-1H-tetrazol-5-yl)pyridin-3-yl)-8,8-dimethyl-7,8-dihydro-6H-cyclopenta[e]pyrazolo[1,5-a]pyrimidine-6-carboxamide] |
| ≥ 1000 nM | CC(C)(O)c1ncc(NC(=O)C2CC3(CCC3)c3c2cnc2cc(F)nn32)cc1C(F)(F)F (single isomer, unassigned) [Example 153, 2′-fluoro-N-(6-(2-hydroxypropan-2-yl)-5-(trifluoromethyl)pyridin-3-yl)-6′,7′-dihydrospiro[cyclobutane-1,8′-cyclopenta[e]pyrazolo[1,5-a]pyrimidine]-6′-carboxamide] |
| 10 to 100 nM | CNC(=O)c1ncc(NC(=O)C2CC(C)(C)c3c2cnc2cc(Cl)nn32)cc1C(F)(F)F (single isomer, unassigned) [Example 155, 2-chloro-8,8-dimethyl-N-(6-(methylcarbamoyl)-5-(trifluoromethyl)pyridin-3-yl)-7,8-dihydro-6H-cyclopenta[e]pyrazolo[1,5-a]pyrimidine-6-carboxamide] |
| ≥ 1000 nM | Cc1cc2cc(F)c3c(n2n1)C(C)(C)C[C@H]3C(=O)Nc1cnc(-n2nccn2)c(Cl)c1 (single isomer, unassigned) [Example 156, N-(5-chloro-6-(2H-1,2,3-triazol-2-yl)pyridin-3-yl)-5-fluoro-2,8,8-trimethyl-7,8-dihydro-6H-cyclopenta[e]pyrazolo[1,5-a]pyridine-6-carboxamide] |
| ≥ 1000 nM | C[C@H](O)c1cnn(-c2ncc(NC(=O)[C@@H]3CC4(CCC4)c4c3cnc3cc(Cl)nn43)cc2Cl)n1 (single isomer, unassigned) [Example 159] |

The remaining lines, values behind:

| Compound | IC50 |
| --- | --- |
| CC1(C)C[C@](C)(C(=O)Nc2cnc(-n3nccn3)c(Cl)c2)c2cnc3cc(Cl)nn3c21 (single isomer, unassigned) [Example 138, 2-chloro-N-(5-chloro-6-(2H-1,2,3-triazol-2-yl)pyridin-3-yl)-6,8,8-trimethyl-7,8-dihydro-6H-cyclopenta[e]pyrazolo[1,5-a]pyrimidine-6-carboxamide] | ≥ 1000 nM |
| CC1(C)CC(C)(C(=O)Nc2cnc(-n3nccn3)c(Cl)c2)c2cnc3cc(Cl)nn3c21 (single isomer, unassigned) [Example 139, 2-chloro-N-(5-chloro-6-(2H-1,2,3-triazol-2-yl)pyridin-3-yl)-6,8,8-trimethyl-7,8-dihydro-6H-cyclopenta[e]pyrazolo[1,5-a]pyrimidine-6-carboxamide] | ≥ 1000 nM |
| Cc1nnn(-c2ncc(NC(=O)[C@H]3CC(C)(C)c4c3cnc3cc(Cl)nn43)cc2Cl)n1 (single isomer, unassigned) [Example 140, 2-chloro-N-(5-chloro-6-(5-methyl-2H-tetrazol-2-yl)pyridin-3-yl)-8,8-dimethyl-7,8-dihydro-6H-cyclopenta[e]pyrazolo[1,5-a]pyrimidine-6-carboxamide] | 100 to 1000 nM |
| Cc1nnn(-c2ncc(NC(=O)C3CC(C)(C)c4c3cnc3cc(Cl)nn43)cc2Cl)n1 (single isomer, unassigned) [Example 141, 2-chloro-N-(5-chloro-6-(5-methyl-2H-tetrazol-2-yl)pyridin-3-yl)-8,8-dimethyl-7,8-dihydro-6H-cyclopenta[e]pyrazolo[1,5-a]pyrimidine-6-carboxamide] | ≥ 1000 nM |
| Cn1nnc(-c2ncc(NC(=O)[C@@H]3CC(C)(C)c4c3cnc3cc(Cl)nn43)cc2Cl)n1 (single isomer, unassigned) [Example 142, 2-chloro-N-(5-chloro-6-(2-methyl-2H-tetrazol-5-yl)pyridin-3-yl)-8,8-dimethyl-7,8-dihydro-6H-cyclopenta[e]pyrazolo[1,5-a]pyrimidine-6-carboxamide] | ≥ 1000 nM |
| N#Cc1cc(NC(=O)[C@H]2CC3(CCOCC3)c3c2cnc2cc(F)nn32)cnc1OC(F)F (single isomer, unassigned) [Example 146, N-(5-cyano-6-(difluoromethoxy)pyridin-3-yl)-2-fluoro-2′,3′,5′,6,6′,7-hexahydrospiro[cyclopenta[e]pyrazolo[1,5-a]pyrimidine-8,4′-pyran]-6-carboxamide] | 10 to 100 nM |
| N#Cc1cc(NC(=O)C2CC3(CCOCC3)c3c2cnc2cc(F)nn32)cnc1OC(F)F (single isomer, unassigned) [Example 147, N-(5-cyano-6-(difluoromethoxy)pyridin-3-yl)-2-fluoro-2′,3′,5′,6,6′,7-hexahydrospiro[cyclopenta[e]pyrazolo[1,5-a]pyrimidine-8,4′-pyran]-6-carboxamide] | ≥ 1000 nM |
| O=C(Nc1cnc(-n2nccn2)c(C(F)(F)F)c1)C1CC2(CC2)c2c1cnc1cc(Cl)nn21 (single isomer, unassigned) [Example 148, N-(6-(2H-1,2,3-triazol-2-yl)-5-(trifluoromethyl)pyridin-3-yl)-2-chloro-6,7-dihydrospiro[cyclopenta[e]pyrazolo[1,5-a]pyrimidine-8,1′-cyclopropane]-6-carboxamide] | ≥ 1000 nM |
| CC1(C)C[C@@H](C(=O)Nc2cnc(-n3nccn3)c(C(F)(F)F)c2)c2cnc3cc(F)nn3c21 (single isomer, unassigned) [Example 150, N-(6-(2H-1,2,3-triazol-2-yl)-5-(trifluoromethyl)pyridin-3-yl)-2-fluoro-8,8-dimethyl-7,8-dihydro-6H-cyclopenta[e]pyrazolo[1,5-a]pyrimidine-6-carboxamide] | 10 to 100 nM |
| CC(C)(O)c1ncc(NC(=O)[C@H]2CC3(CCC3)c3c2cnc2cc(F)nn32)cc1C(F)(F)F (single isomer, unassigned) [Example 152, 2′-fluoro-N-(6-(2-hydroxypropan-2-yl)-5-(trifluoromethyl)pyridin-3-yl)-6′,7′-dihydrospiro[cyclobutane-1,8′-cyclopenta[e]pyrazolo[1,5-a]pyrimidine]-6′-carboxamide] | 100 to 1000 nM |
| CNC(=O)c1ncc(NC(=O)[C@@H]2CC(C)(C)c3c2cnc2cc(Cl)nn32)cc1C(F)(F)F (single isomer, unassigned) [Example 154, 2-chloro-8,8-dimethyl-N-(6-(methylcarbamoyl)-5-(trifluoromethyl)pyridin-3-yl)-7,8-dihydro-6H-cyclopenta[e]pyrazolo[1,5-a]pyrimidine-6-carboxamide] | ≥ 1000 nM |
| C[C@@H](O)c1cnn(-c2ncc(NC(=O)[C@@H]3CC4(CCC4)c4c3cnc3cc(Cl)nn43)cc2Cl)n1 (single isomer, unassigned) [Example 161] | ≥ 1000 nM |
| CCO[C@@]1(C(F)(F)F)C[C@@H](C(=O)Nc2cnc(-n3nccn3)c(Cl)c2)c2cnc3cc(Cl)nn3c21 (single isomer, unassigned) [Example 167, (cis)-2-chloro-N-(5-chloro-6-(2H-1,2,3-triazol-2-yl)pyridin-3-yl)-8-ethoxy-8-(trifluoromethyl)-7,8-dihydro-6H-cyclopenta[e]pyrazolo[1,5-a]pyrimidine-6-carboxamide] | 100 to 1000 nM |
